Data as given in US20240391940A1, “FUSED RING-CONTAINING COMPOUND, APPLICATION THEREOF, AND COMPOSITION CONTAINING SAME” (GenEros Biopharma Ltd., priority 2020, published 2024).
“And” between values parts separate entries of the source, which are not always exact repeats. Equal values may be shown once. Read-outs that look alike come from different tables or passages of the source.

Assays:
[1] = test system: adjuvant arthritis (AIA) rat model; assay: Rat AIA (adjuvant arthritis) model; format: in vivo, Lewis rats; conditions: AIA rats, 10 mg/kg daily from day 9, individual animals, 10 mg/kg; for Hind paw volume: in mL (unit assumed)
[2] = test system: collagen-induced arthritis (CIA) mouse model; conditions: CIA mice; for clinical score: Tofacitinib 10 mg/kg p.o. BID from day 28; for clinical score / body weight: Mean ± SEM; for body weight: Tofacitinib 10 mg/kg
[3] = test system: collagen-induced arthritis (CIA) mouse model; assay: Mouse CIA model, repeated for dose exploration (10, 30, 50 mg/kg); conditions: for Significance of clinical score vs. Vehicle group (Two-way ANOVA): Tofacitinib BID; for Changes in body weight, Mean ± SEM / Clinical scores, Mean ± SEM / Clinical scores: significance vs. solvent control group, two-way ANOVA: G2 Tofacitinib 10 mg/kg
Description: Testing was repeated for dose exploration
The above method was used.

SMILES: C[C@@H]1CCN(C(=O)CC#N)C[C@@H]1N(C)c1ncnc2[nH]ccc12 [Tofacitinib, reference compound]
- body weight ([1]; day 9): 167 g (2×) and 156 g and 146 g and 168 g and 151 g and 154 g and 161 g
- clinical scores ([1]; day 9): 1 and 0 (7×)
- Hind paw volume ([1]; day 9): 2.1 and 1.42 and 1.4 and 1.35 and 1.24 and 1.1
- body weight ([1]; day 10): 165 g and 153 g and 142 g and 168 g and 150 g and 152 g and 160 g and 166 g
- body weight ([1]; day 11): 162 g and 154 g and 140 g and 166 g and 145 g and 151 g and 158 g and 167 g
- clinical scores ([1]; day 11): 1.5 and 0.5 (4×) and 0 (2×) and 0.25
- Hind paw volume ([1]; day 11): 2 and 1.23 and 1.03 and 1.53 and 1.02 and 1.46 and 1.01
- body weight ([1]; day 12): 155 g (2×) and 149 g (2×) and 136 g and 159 g and 145 g and 168 g
- body weight ([1]; day 13): 154 g (2×) and 148 g and 136 g and 157 g and 140 g and 167 g and 150 g
- clinical scores ([1]; day 13): 3.3 and 1 (3×) and 1.5 and 0.5 and 1.2 and 0.7
- Hind paw volume ([1]; day 13): 2.59 and 1.92 and 1.72 and 1.16 and 1.39 and 1.11 and 1.83 and 1.47
- body weight ([1]; day 14): 151 g and 144 g and 135 g and 154 g and 140 g and 147 g and 153 g and 164 g
- body weight ([1]; day 15): 150 g and 145 g and 134 g and 152 g and 139 g and 146 g and 151 g and 162 g
- clinical scores ([1]; day 15): 3.5 and 3 and 2 (2×) and 1.5 and 2.5 and 0.8 and 0.7
- Hind paw volume ([1]; day 15): 2.54 and 2.22 and 1.31 and 1.33 and 1.65 and 2.45 and 1.18
- body weight ([1]; day 16): 153 g and 142 g and 136 g and 152 g and 141 g and 145 g and 147 g and 160 g
- body weight ([1]; day 17): 156 g and 147 g and 138 g and 151 g and 142 g and 146 g (2×) and 163 g
- clinical scores ([1]; day 17): 3 and 2 (2×) and 1.8 and 1.5 and 2.3 and 1.3 and 0.3
- Hind paw volume ([1]; day 17): 2.5 and 2.45 and 2.08 and 1.17 and 2.21 and 1.73 and 2.16 and 0.94
- body weight ([1]; day 18): 155 g and 148 g (3×) and 141 g and 151 g and 143 g and 164 g
- body weight ([1]; day 19): 160 g and 151 g and 144 g and 159 g and 145 g and 153 g and 154 g and 166 g
- clinical scores ([1]; day 19): 2.8 and 2 and 1.3 (2×) and 0.3 and 1.5 and 1 and 0
- Hind paw volume ([1]; day 19): 2.81 and 2.85 and 1.96 and 1.46 and 2.31 and 1.83 and 1.42
- body weight ([1]; day 20): 159 g and 150 g and 136 g and 160 g and 145 g and 152 g and 153 g and 165 g
- body weight ([1]; day 21): 161 g and 150 g and 148 g and 162 g
- clinical scores ([1]; day 21): 2 and 1.5 (2×) and 1.3 (2×) and 0 (2×) and 1
- Hind paw volume ([1]; day 21): 2.49 and 2.2 and 2.17 and 1.18 and 1.96 and 1.22
- clinical scores ([1]; day 23): 3 and 1 (4×) and 6 and 0.5 and 0
- Hind paw volume ([1]; day 23): 2.74 and 1.9 and 1.91 and 1.23 and 1.17 and 1.64 and 1.92 and 1.18
- clinical score ([2]; day 21): 0.0 ± 0.00
- clinical score ([2]; day 25): 0.3 ± 0.16
- clinical score ([2]; day 28): 0.8 ± 0.31
- clinical score ([2]; day 29): 1.0 ± 0.42
- clinical score ([2]; day 32): 1.8 ± 0.49
- clinical score ([2]; day 34): 2.5 ± 0.65
- clinical score ([2]; day 36): 2.8 ± 0.75
- clinical score ([2]; day 39): 3.4 ± 0.80
- clinical score ([2]; day 41): 3.5 ± 0.87
- body weight ([2]; day 21): 20.39 ± 0.43
- body weight ([2]; day 25): 20.54 ± 0.45
- body weight ([2]; day 28): 20.63 ± 0.49
- body weight ([2]; day 29): 20.2 ± 0.44
- body weight ([2]; day 32): 19.91 ± 0.50
- body weight ([2]; day 34): 20.39 ± 0.44
- body weight ([2]; day 36): 20.26 ± 0.43
- body weight ([2]; day 39): 20.31 ± 0.34
- body weight ([2]; day 41): 21.04 ± 0.44
- Effect on symptoms of arthritis and lesions in tissues ([2]; positive control tofacitinib): significant improving effect on the symptoms of arthritis and lesions in tissues
- Joint histopathology (H&E staining) ([2]; tofacitinib 10 mg/kg): no significant lesions in joint tissues
- Day on which significant inhibition of the score of arthritis began ([2]; tofacitinib 10 mg/kg BID): 34 days
- Significance of clinical score vs. Vehicle group (Two-way ANOVA) ([3]; CIA mice, Day 35): ** (**P < 0.01)
- Significance of clinical score vs. Vehicle group (Two-way ANOVA) ([3]; CIA mice, Day 38): *** (***P < 0.001)
- Significance of clinical score vs. Vehicle group (Two-way ANOVA) ([3]; CIA mice, Day 40): **** (****P < 0.0001)
- Significance of clinical score vs. Vehicle group (Two-way ANOVA) ([3]; CIA mice, Day 42): **** (****P < 0.0001)
- Effect on symptoms of arthritis and lesions in tissues ([3]; CIA mice, positive control tofacitinib): significant improving effect on the symptoms of arthritis and lesions in tissues
- Changes in body weight, Mean ± SEM ([3]; Day 21): 20.41 ± 0.27
- Clinical scores, Mean ± SEM ([3]; Day 21): 0.0 ± 0.00
- Changes in body weight, Mean ± SEM ([3]; Day 24): 19.69 ± 0.37
- Clinical scores, Mean ± SEM ([3]; Day 24): 0.0 ± 0.00
- Changes in body weight, Mean ± SEM ([3]; Day 26): 19.59 ± 0.36
- Clinical scores, Mean ± SEM ([3]; Day 26): 0.3 ± 0.16
- Changes in body weight, Mean ± SEM ([3]; Day 28): 19.25 ± 0.50
- Clinical scores, Mean ± SEM ([3]; Day 28): 0.6 ± 0.18
- Changes in body weight, Mean ± SEM ([3]; Day 31): 18.98 ± 0.53
- Clinical scores, Mean ± SEM ([3]; Day 31): 1.8 ± 0.37
- Changes in body weight, Mean ± SEM ([3]; Day 33): 19.14 ± 0.43
- Clinical scores, Mean ± SEM ([3]; Day 33): 3.1 ± 0.52
- Changes in body weight, Mean ± SEM ([3]; Day 35): 19.03 ± 0.46
- Clinical scores, Mean ± SEM ([3]; Day 35): 3.6 ± 0.56
- Clinical scores: significance vs. solvent control group, two-way ANOVA ([3]; Day 35): ** (** p < 0.01)
- Changes in body weight, Mean ± SEM ([3]; Day 38): 18.98 ± 0.45
- Clinical scores, Mean ± SEM ([3]; Day 38): 4.6 ± 0.75
- Clinical scores: significance vs. solvent control group, two-way ANOVA ([3]; Day 38): *** (*** p < 0.001)
- Changes in body weight, Mean ± SEM ([3]; Day 40): 19.56 ± 0.32
- Clinical scores, Mean ± SEM ([3]; Day 40): 5.1 ± 0.90
- Clinical scores: significance vs. solvent control group, two-way ANOVA ([3]; Day 40): **** (**** p <0.0001)
- Changes in body weight, Mean ± SEM ([3]; Day 42): 19.69 ± 0.40
- Clinical scores, Mean ± SEM ([3]; Day 42): 5.5 ± 0.87
- Clinical scores: significance vs. solvent control group, two-way ANOVA ([3]; Day 42): **** (**** p <0.0001)
